Read-outs that look alike come from different tables or passages of the source.
Tests used:
progenitor cells = conditions: mice, AMD3100 5 mg/Kg s.c. + MIP-1α 5 μg I.V., 11 hours after rhu G-CSF or saline, blood 1 hour later
Procedure: One hour later, the mice were sacrificed and the number of progenitor cells per mL of blood were measured.

[1] = tested on: CFU-GM, BFU-E and CFU-GEMM progenitor cells; conditions: 80 μg/kg s.c.

In the case of c1cc(CN2CCCNCCNCCCNCC2)ccc1CN1CCCNCCNCCCNCC1 [AMD3100, 1,1′-[1,4-phenylene-bis(methylene)]-bis-1,4,8,11-tetraazacyclotetradecane], the “mobilization of progenitor cells in combination with mu MIP-1α” value (progenitor cells) is reported as “additive to greater than additive”, the “Absolute # of Progenitors per ML, BFU-E” value ([1]; P1, T = 1 h after injection) is reported as 674 per ML and the “Absolute # of Progenitors per ML, CFU-GEMM” value (shortened to “Absolute # … per ML, CFU-GEMM”) ([1]; P1, T = 1 h after injection) is reported as 264 per ML. The “Absolute # of Progenitors per ML, CFU-GM” value ([1]; P1, T = 1 h after injection) was 1259 per ML, the “fold change from T=0, progenitors BFU-E, methylcellulose culture” value (“fold change from T=0, progenitors BFU-E” for short) ([1]; P1, T = 1 h after injection) was 2.58 fold and the “fold change from T=0, progenitors CFU-GEMM, methylcellulose culture” value ([1]; P1, T = 1 h after injection) was 2.07 fold. The “fold change from T=0, progenitors CFU-GM, methylcellulose culture” value (from here on “fold change from T=0, progenitors CFU-GM”) ([1]; P1, T = 1 h after injection) was 5.09 fold, the “Absolute # of Progenitors per ML, BFU-E” value ([1]; P1, T = 3 h after injection) was 1340 per ML and the “Absolute # … per ML, CFU-GEMM” value ([1]; P1, T = 3 h after injection) was 540 per ML. For the same compound, the “Absolute # of Progenitors per ML, CFU-GM” value ([1]; P1, T = 3 h after injection) was 1760 per ML, the “fold change from T=0, progenitors BFU-E” value ([1]; P1, T = 3 h after injection) was 5.13 fold and the “fold change from T=0, progenitors CFU-GEMM, methylcellulose culture” value ([1]; P1, T = 3 h after injection) was 4.25 fold. The “fold change from T=0, progenitors CFU-GM” value ([1]; P1, T = 3 h after injection) was 7.12 fold, the “Absolute # of Progenitors per ML, BFU-E” value ([1]; P1, T = 6 h after injection) was 2388 per ML and the “Absolute # … per ML, CFU-GEMM” value ([1]; P1, T = 6 h after injection) was 949 per ML. For the same compound, the “Absolute # of Progenitors per ML, CFU-GM” value ([1]; P1, T = 6 h after injection) was 3624 per ML, the “fold change from T=0, progenitors BFU-E” value ([1]; P1, T = 6 h after injection) was 9.14 fold and the “fold change from T=0, progenitors CFU-GEMM, methylcellulose culture” value ([1]; P1, T = 6 h after injection) was 7.47 fold. For the same compound, the “fold change from T=0, progenitors CFU-GM” value ([1]; P1, T = 6 h after injection) was 14.66 fold, the “Absolute # of Progenitors per ML, BFU-E” value ([1]; P1, T = 9 h after injection) was 1418 per ML and the “Absolute # … per ML, CFU-GEMM” value ([1]; P1, T = 9 h after injection) was 335 per ML. The “Absolute # of Progenitors per ML, CFU-GM” value ([1]; P1, T = 9 h after injection) was 1547 per ML, the “fold change from T=0, progenitors BFU-E” value ([1]; P1, T = 9 h after injection) was 5.43 fold and the “fold change from T=0, progenitors CFU-GEMM, methylcellulose culture” value ([1]; P1, T = 9 h after injection) was 2.64 fold. For the same compound, the “fold change from T=0, progenitors CFU-GM” value ([1]; P1, T = 9 h after injection) was 6.26 fold, the “Absolute # of Progenitors per ML, BFU-E” value ([1]; P1, T = 24 h after injection) was 278 per ML and the “Absolute # … per ML, CFU-GEMM” value ([1]; P1, T = 24 h after injection) was 142 per ML. The “Absolute # of Progenitors per ML, CFU-GM” value ([1]; P1, T = 24 h after injection) was 271 per ML, the “fold change from T=0, progenitors BFU-E” value ([1]; P1, T = 24 h after injection) was 1.06 fold and the “fold change from T=0, progenitors CFU-GEMM, methylcellulose culture” value ([1]; P1, T = 24 h after injection) was 1.12 fold. For the same compound, the “fold change from T=0, progenitors CFU-GM” value ([1]; P1, T = 24 h after injection) was 1.10 fold, the “Absolute # of Progenitors per ML, BFU-E” value ([1]; P2, T = 1 h after injection) was 608 per ML and the “Absolute # … per ML, CFU-GEMM” value ([1]; P2, T = 1 h after injection) was 272 per ML. For the same compound, the “Absolute # of Progenitors per ML, CFU-GM” value ([1]; P2, T = 1 h after injection) was 1455 per ML, the “fold change from T=0, progenitors BFU-E” value ([1]; P2, T = 1 h after injection) was 1.48 fold and the “fold change from T=0, progenitors CFU-GEMM, methylcellulose culture” value ([1]; P2, T = 1 h after injection) was 2.26 fold. The “fold change from T=0, progenitors CFU-GM” value ([1]; P2, T = 1 h after injection) was 5.33 fold, the “Absolute # of Progenitors per ML, BFU-E” value ([1]; P2, T = 3 h after injection) was 809 per ML and the “Absolute # … per ML, CFU-GEMM” value ([1]; P2, T = 3 h after injection) was 418 per ML. The “Absolute # of Progenitors per ML, CFU-GM” value ([1]; P2, T = 3 h after injection) was 4646 per ML, the “fold change from T=0, progenitors BFU-E” value ([1]; P2, T = 3 h after injection) was 1.98 fold and the “fold change from T=0, progenitors CFU-GEMM, methylcellulose culture” value ([1]; P2, T = 3 h after injection) was 3.47 fold. For the same compound, the “fold change from T=0, progenitors CFU-GM” value ([1]; P2, T = 3 h after injection) was 17.02 fold, the “Absolute # of Progenitors per ML, BFU-E” value ([1]; P2, T = 6 h after injection) was 1502 per ML and the “Absolute # … per ML, CFU-GEMM” value ([1]; P2, T = 6 h after injection) was 1126 per ML. The “Absolute # of Progenitors per ML, CFU-GM” value ([1]; P2, T = 6 h after injection) was 6540 per ML, the “fold change from T=0, progenitors BFU-E” value ([1]; P2, T = 6 h after injection) was 3.67 fold and the “fold change from T=0, progenitors CFU-GEMM, methylcellulose culture” value ([1]; P2, T = 6 h after injection) was 9.35 fold. For the same compound, the “fold change from T=0, progenitors CFU-GM” value ([1]; P2, T = 6 h after injection) was 23.96 fold, the “Absolute # of Progenitors per ML, BFU-E” value ([1]; P2, T = 9 h after injection) was 1886 per ML and the “Absolute # … per ML, CFU-GEMM” value ([1]; P2, T = 9 h after injection) was 854 per ML. For the same compound, the “Absolute # of Progenitors per ML, CFU-GM” value ([1]; P2, T = 9 h after injection) was 3416 per ML, the “fold change from T=0, progenitors BFU-E” value ([1]; P2, T = 9 h after injection) was 4.61 fold and the “fold change from T=0, progenitors CFU-GEMM, methylcellulose culture” value ([1]; P2, T = 9 h after injection) was 7.09 fold. The “fold change from T=0, progenitors CFU-GM” value ([1]; P2, T = 9 h after injection) was 12.51 fold, the “Absolute # of Progenitors per ML, BFU-E” value ([1]; P2, T = 24 h after injection) was 768 per ML and the “Absolute # … per ML, CFU-GEMM” value ([1]; P2, T = 24 h after injection) was 316 per ML. For the same compound, the “Absolute # of Progenitors per ML, CFU-GM” value ([1]; P2, T = 24 h after injection) was 521 per ML, the “fold change from T=0, progenitors BFU-E” value ([1]; P2, T = 24 h after injection) was 1.88 fold and the “fold change from T=0, progenitors CFU-GEMM, methylcellulose culture” value ([1]; P2, T = 24 h after injection) was 2.62 fold. The “fold change from T=0, progenitors CFU-GM” value ([1]; P2, T = 24 h after injection) was 1.91 fold, the “Absolute # of Progenitors per ML, BFU-E” value ([1]; P3, T = 1 h after injection) was 806 per ML and the “Absolute # … per ML, CFU-GEMM” value ([1]; P3, T = 1 h after injection) was 312 per ML. The “Absolute # of Progenitors per ML, CFU-GM” value ([1]; P3, T = 1 h after injection) was 1040 per ML, the “fold change from T=0, progenitors BFU-E” value ([1]; P3, T = 1 h after injection) was 2.30 fold and the “fold change from T=0, progenitors CFU-GEMM, methylcellulose culture” value ([1]; P3, T = 1 h after injection) was 2.22 fold. For the same compound, the “fold change from T=0, progenitors CFU-GM” value ([1]; P3, T = 1 h after injection) was 3.70 fold, the “Absolute # of Progenitors per ML, BFU-E” value ([1]; P3, T = 3 h after injection) was 915 per ML and the “Absolute # … per ML, CFU-GEMM” value ([1]; P3, T = 3 h after injection) was 610 per ML. The “Absolute # of Progenitors per ML, CFU-GM” value ([1]; P3, T = 3 h after injection) was 4233 per ML, the “fold change from T=0, progenitors BFU-E” value ([1]; P3, T = 3 h after injection) was 2.61 fold and the “fold change from T=0, progenitors CFU-GEMM, methylcellulose culture” value ([1]; P3, T = 3 h after injection) was 4.34 fold. For the same compound, the “fold change from T=0, progenitors CFU-GM” value ([1]; P3, T = 3 h after injection) was 15.07 fold, the “Absolute # of Progenitors per ML, BFU-E” value ([1]; P3, T = 6 h after injection) was 1593 per ML and the “Absolute # … per ML, CFU-GEMM” value ([1]; P3, T = 6 h after injection) was 916 per ML. The “Absolute # of Progenitors per ML, CFU-GM” value ([1]; P3, T = 6 h after injection) was 5895 per ML, the “fold change from T=0, progenitors BFU-E” value ([1]; P3, T = 6 h after injection) was 4.54 fold and the “fold change from T=0, progenitors CFU-GEMM, methylcellulose culture” value ([1]; P3, T = 6 h after injection) was 6.52 fold. For the same compound, the “fold change from T=0, progenitors CFU-GM” value ([1]; P3, T = 6 h after injection) was 20.99 fold, the “Absolute # of Progenitors per ML, BFU-E” value ([1]; P3, T = 9 h after injection) was 1302 per ML and the “Absolute # … per ML, CFU-GEMM” value ([1]; P3, T = 9 h after injection) was 347 per ML. For the same compound, the “Absolute # of Progenitors per ML, CFU-GM” value ([1]; P3, T = 9 h after injection) was 2647 per ML, the “fold change from T=0, progenitors BFU-E” value ([1]; P3, T = 9 h after injection) was 3.71 fold and the “fold change from T=0, progenitors CFU-GEMM, methylcellulose culture” value ([1]; P3, T = 9 h after injection) was 2.47 fold. For the same compound, the “fold change from T=0, progenitors CFU-GM” value ([1]; P3, T = 9 h after injection) was 9.42 fold, the “Absolute # of Progenitors per ML, BFU-E” value ([1]; P3, T = 24 h after injection) was 402 per ML and the “Absolute # … per ML, CFU-GEMM” value ([1]; P3, T = 24 h after injection) was 97 per ML. For the same compound, the “Absolute # of Progenitors per ML, CFU-GM” value ([1]; P3, T = 24 h after injection) was 402 per ML, the “fold change from T=0, progenitors BFU-E” value ([1]; P3, T = 24 h after injection) was 1.14 fold and the “fold change from T=0, progenitors CFU-GEMM, methylcellulose culture” value ([1]; P3, T = 24 h after injection) was 0.69 fold.

Reference: patent US10322111B2, “Chemokine receptor binding heterocyclic compounds with enhanced efficacy” (Genzyme Corporation, priority 2001, dated 2019)
